From patent US9637473B2, “Acrylamide derivatives as antimalarial agents” (priority 2013, dated 2017)
pIC50: −log10 of the molar value. Counter-ions that a name gives are not always drawn.

Tested on: P. Falciparum NF54
Experiment: Plasmodium falciparum in vitro assay ([3H]-hypoxanthine incorporation)
Assay type: cell-based
Details: Plasmodium falciparum, Erythrocyte, P. Falciparum NF54, erythrocytic stages in human red blood cells, 50% human serum
How it was run: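 Activity against the blood stages of Plasmodium falciparum growing in human red blood cells was measured by how much [3H]-hypoxanthine the parasites took up. Filters were dried, sealed in plastic foil containing 10 mL of scintillation fluid, and read on a Betaplate liquid scintillation counter. IC50 values came from sigmoidal inhibition curves fitted in Microsoft Excel.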

Row | SMILES | pIC50
1 | CN1CCC(N2CCC(N(Cc3ccc(Nc4ccncc4)cc3)C(=O)/C=C/c3ccc(OC(F)(F)F)cc3)CC2)CC1 [Example 118, (E)-N-(1′-Methyl-[1,4′]bipiperidinyl-4-yl)-N-[4-(pyridin-4-ylamino)-benzyl]-3-(4-trifluoromethoxy-phenyl)-acrylamide] | 7.08
2 | Cc1cc(Nc2ccc(CN(C(=O)/C=C/c3ccc(OC(F)(F)F)cc3)C3CCN(C4CCN(C)CC4)CC3)cc2)ccn1 [Example 119, (E)-N-(1′-Methyl-[1,4′]bipiperidinyl-4-yl)-N-[4-(2-methyl-pyridin-4-ylamino)-benzyl]-3-(4-trifluoromethoxy-phenyl)-acrylamide] | 7.34
3 | Cc1cc(Nc2ccc(CN(C(=O)/C=C/c3ccc(C(F)(F)F)cc3)[C@H]3CCCN(C(C)C)C3)cn2)ccn1 [Example 120, (E)-N-((S)-1-Isopropyl-piperidin-3-yl)-N-[6-(2-methyl-pyridin-4-ylamino)-pyridin-3-ylmethyl]-3-(4-trifluoromethyl-phenyl)-acrylamide] | 7.05
4 | Cc1cc(N(C)c2cccc(CN(C(=O)/C=C/c3ccc(C(F)(F)F)cc3)C3CCN(C(C)C)CC3)c2)ccn1 [Example 121, (E)-N-(1-Isopropyl-piperidin-4-yl)-N-{3-[methyl-(2-methyl-pyridin-4-yl)-amino]-benzyl}-3-(4-trifluoromethyl-phenyl)-acrylamide formate] | 7.12
5 | Cc1cc(Nc2cccc(CN(C(=O)/C=C/c3ccc(C(F)(F)F)cc3)C3CCN(C(C)C)CC3)c2)ccn1 [Example 122, (E)-N-(1-Isopropyl-piperidin-4-yl)-N-[3-(2-methyl-pyridin-4-ylamino)-benzyl]-3-(4-trifluoromethyl-phenyl)-acrylamide formate] | 7.37
6 | Cc1cnccc1Nc1cccc(CN(C(=O)/C=C/c2ccc(C(F)(F)F)cc2)C2CCN(C(C)C)CC2)c1 [Example 123, (E)-N-(1-Isopropyl-piperidin-4-yl)-N-[3-(3-methyl-pyridin-4-ylamino)-benzyl]-3-(4-trifluoromethyl-phenyl)-acrylamide formate] | 7.68
7 | CC(C)N1CCC(N(Cc2cccc(Nc3ccncc3F)c2)C(=O)/C=C/c2ccc(C(F)(F)F)cc2)CC1 [Example 124, (E)-N-[3-(3-Fluoro-pyridin-4-ylamino)-benzyl]-N-(1-isopropyl-piperidin-4-yl)-3-(4-trifluoromethyl-phenyl)-acrylamide formate] | 6.52
8 | CC(C)N1CCC(N(Cc2cccc(Nc3ccncn3)c2)C(=O)/C=C/c2ccc(C(F)(F)F)cc2)CC1 [Example 125, (E)-N-(1-Isopropyl-piperidin-4-yl)-N-[3-(pyrimidin-4-ylamino)-benzyl]-3-(4-trifluoromethyl-phenyl)-acrylamide formate] | 6.47
9 | CC(C)N1CCC(N(Cc2cccc(Nc3ccncc3)c2)C(=O)/C=C/c2ccc(C(F)(F)F)cc2)CC1 [Example 126, (E)-N-(1-Isopropyl-piperidin-4-yl)-N-[3-(pyridin-4-ylamino)-benzyl]-3-(4-trifluoromethyl-phenyl)-acrylamide formate] | 7.52
10 | CC(C)N1CCC(N(Cc2cccc(N(C)c3ccncc3)n2)C(=O)/C=C/c2ccc(C(F)(F)F)cc2)CC1 [Example 127, (E)-N-(1-Isopropyl-piperidin-4-yl)-N-[6-(methyl-pyridin-4-yl-amino)-pyridin-2-ylmethyl]-3-(4-trifluoromethyl-phenyl)-acrylamide formate] | 6.74
11 | Cc1cc(N(C)c2cccc(CN(C(=O)/C=C/c3ccc(C(F)(F)F)cc3)C3CCN(C(C)C)CC3)n2)ccn1 [Example 128, (E)-N-(1-Isopropyl-piperidin-4-yl)-N-{6-[methyl-(2-methyl-pyridin-4-yl)-amino]-pyridin-2-ylmethyl}-3-(4-trifluoromethyl-phenyl)-acrylamide formate] | 6.52
